Source: paper PMC11859928, “Design, Synthesis, and Antiproliferative Activity of Novel Indole/1,2,4-Triazole Hybrids as Tubulin Polymerization Inhibitors” (Pharmaceuticals, 2025)

Legend:
Type in all cases: cell-based, human
HS 578T = assay: NCI five-dose assay; details: Breast cancer; for LC50 / GI50: Homo sapiens; for LC50: 48 h; for GI50: read-out: GI50 Conc. per Cell Lines
M14 = assay: NCI five-dose assay; details: M14, Melanoma; for GI50: read-out: GI50 Conc. per Cell Lines
Breast cancer subpanel = assay: NCI five-dose assay, subpanel mean; details: for GI50 Selectivity Ratio (MID a/MID b): Breast cancer subpanel; for GI50: Homo sapiens, average sensitivity of all cell lines of the Breast cancer subpanel, read-out: GI50 Subpanel MID b
T-47D = assay: NCI five-dose assay; details: Breast cancer; for LC50 (concentration killing 50% of cells) / GI50: Homo sapiens, T47D; for LC50 (concentration killing 50% of cells): 48 h; for GI50: read-out: GI50 Conc. per Cell Lines
COLO205 = assay: NCI five-dose assay; details: COLO205, Colon cancer; for CC50 / GI50: Homo sapiens, COLO 205; for CC50: 48 h, read-out: LC50 (the source's name); for GI50: read-out: GI50 Conc. per Cell Lines
NCI/ADR-RES = assay: NCI five-dose assay; details: Ovarian cancer; for LC50 / GI50: Homo sapiens; for LC50: 48 h; for GI50: read-out: GI50 Conc. per Cell Lines
Prostate cancer subpanel = assay: NCI five-dose assay, subpanel mean; details: for GI50: Homo sapiens, average sensitivity of all cell lines of the Prostate cancer subpanel, read-out: GI50 Subpanel MID b; for GI50 Selectivity Ratio (MID a/MID b): Prostate cancer subpanel
OVCAR-5 = assay: NCI five-dose assay; details: OVCAR-5, Ovarian cancer; for LC50 / GI50: Homo sapiens; for LC50: 48 h; for GI50: read-out: GI50 Conc. per Cell Lines
NCI-H226 = assay: NCI five-dose assay; details: NCI-H226, Non-small cell lung cancer; for CC50 / GI50: Homo sapiens; for CC50: 48 h, read-out: LC50 (the source's name); for GI50: read-out: GI50 Conc. per Cell Lines
786-0 = assay: NCI five-dose assay; details: 786-0, Renal cancer; for LC50 (50% lethal concentration) / GI50: Homo sapiens; for LC50 (50% lethal concentration): 48 h; for GI50: read-out: GI50 Conc. per Cell Lines
SK-OV-3 = assay: NCI five-dose assay; details: SK-OV-3, Ovarian cancer; for CC50 / GI50: Homo sapiens; for CC50: 48 h, read-out: LC50 (the source's name); for GI50: read-out: GI50 Conc. per Cell Lines
SK-MEL-2 = assay: NCI five-dose assay; details: SK-MEL-2, Melanoma; for CC50 / GI50: Homo sapiens; for CC50: 48 h, read-out: LC50 (the source's name); for GI50: read-out: GI50 Conc. per Cell Lines
NCI-H460 = assay: NCI five-dose assay; details: NCI-H460, Non-small cell lung cancer; for CC50 / GI50: Homo sapiens; for CC50: 48 h, read-out: LC50 (the source's name); for GI50: read-out: GI50 Conc. per Cell Lines

| SMILES | TGI Conc. per Cell Lines (HS 578T) | LC50 (HS 578T) | GI50 (HS 578T) | GI50 (M14; Homo sapiens) | TGI Conc. per Cell Lines (M14) | GI50 Selectivity Ratio (MID a/MID b) (Breast cancer subpanel) | GI50 (Breast cancer subpanel) | TGI Conc. per Cell Lines (T-47D) | LC50 (concentration killing 50% of cells) (T-47D) | GI50 (T-47D) | TGI Conc. per Cell Lines (COLO205) | CC50 (COLO205) | GI50 (COLO205) | LC50 (NCI/ADR-RES) | GI50 (NCI/ADR-RES) | TGI Conc. per Cell Lines (NCI/ADR-RES) | GI50 (Prostate cancer subpanel) | GI50 Selectivity Ratio (MID a/MID b) (Prostate cancer subpanel) | LC50 (OVCAR-5) | GI50 (OVCAR-5) | other results |
| --- | --- | --- | --- | --- | --- | --- | --- | --- | --- | --- | --- | --- | --- | --- | --- | --- | --- | --- | --- | --- | --- |
| Cc1ccc(C(=O)CSc2nnc(-c3c[nH]c4ccccc34)n2-c2ccccc2)cc1 [Compound 6h, 2-((5-(1H-Indol-3-yl)-4-phenyl-4H-1,2,4-triazol-3-yl)thio)-1-(p-tolyl)ethenone] | 56.30 µM | > 100 µM | 14.1 µM | 32.1 µM | >100 µM | 1.07 | 18 µM | ˃100 µM | > 100 µM | 24.9 µM | >100 µM | > 100 µM | 34.4 µM | 76.8 µM | 11.9 µM | 30.20 µM | 8.42 µM | 2.29 | 71.5 µM | 19.4 µM | CC50 (M14; Homo sapiens, 48 h, read-out: LC50 (the source's name)): > 100 µM; TGI Conc. per Cell Lines (OVCAR-5): 37.20 µM; CC50 (NCI-H226): 69.8 µM; GI50 (NCI-H226): 9.22 µM; TGI Conc. per Cell Lines (NCI-H226): 26.10 µM; TGI Conc. per Cell Lines (786-0): 31.20 µM; LC50 (50% lethal concentration) (786-0): 66.4 µM; GI50 (786-0): 14.7 µM; CC50 (SK-OV-3): 64.4 µM; GI50 (SK-OV-3): 17 µM; TGI Conc. per Cell Lines (SK-OV-3): 33.10 µM; CC50 (SK-MEL-2): > 100 µM; GI50 (SK-MEL-2): 30.2 µM; TGI Conc. per Cell Lines (SK-MEL-2): >100 µM; CC50 (NCI-H460): 63.5 µM; GI50 (NCI-H460): 15.2 µM; TGI Conc. per Cell Lines (NCI-H460): 31.00 µM |
| Cc1ccc(/C(CSc2nnc(-c3c[nH]c4ccccc34)n2-c2ccccc2)=N/O)cc1 [Compound 7h, (Z)-2-((5-(1H-Indol-3-yl)-4-phenyl-4H-1,2,4-triazol-3-yl)thio)-1-(p-tolyl)ethanone Oxime] | 4.82 µM | > 100 µM | 2.07 µM | 1.79 µM | 3.86 µM | 1.58 | 1.9 µM | 4.75 µM | > 100 µM | 2.07 µM | 37.40 µM | > 100 µM | 3.77 µM | 7.59 µM | 2 µM | 3.90 µM | 1.85 µM | 1.61 | 5.73 µM | 1.69 µM | TGI Conc. per Cell Lines (OVCAR-5): 3.11 µM; CC50 (NCI-H226): 6.91 µM; GI50 (NCI-H226): 1.63 µM; TGI Conc. per Cell Lines (NCI-H226): 3.36 µM; TGI Conc. per Cell Lines (786-0): 31.40 µM; LC50 (50% lethal concentration) (786-0): 98.1 µM; GI50 (786-0): 10 µM; CC50 (SK-OV-3): 7.89 µM; GI50 (SK-OV-3): 1.68 µM; TGI Conc. per Cell Lines (SK-OV-3): 3.64 µM; CC50 (SK-MEL-2): > 100 µM; GI50 (SK-MEL-2): 2.88 µM; TGI Conc. per Cell Lines (SK-MEL-2): 8.96 µM; CC50 (NCI-H460): 6.55 µM; GI50 (NCI-H460): 3.18 µM; TGI Conc. per Cell Lines (NCI-H460): 12.20 µM |
